Publication PMC9961069 (Metabolites, 2023)
Where two headings read alike, the source gives them in different places.

Columns and labels:
[1] = test system: T1, DHFR in MDA-MB-468 lysates; assay: Lysate cellular thermal shift assay (CETSA) for DHFR; format: binding, Human; conditions: 10 μM, MDA-MB-468 lysate, 45 °C for 3 min, DMSO at 37 °C = 100%
T1 construct: reactions containing 55 μg MDA-MB-468 lysate; endogenous in cells; host or cells: MDA-MB-468
Method: Trypsinized MDA-MB-468 cells were harvested by centrifugation at 200× g for 5 min and washed with PBS supplemented with EDTA-free PIC (Roche) and flash frozen for storage at −80 °C. Cells were lysed by resuspension in 60 μL PBS/PIC per 1 × 10^6 cells. Cells were lysed by three freeze-thaw cycles, where cells were frozen in an ethanol/dry ice bath for 3 min, immediately followed by incubation in a 37 °C water bath for 3 min. The insoluble fraction was removed by centrifugation at 20,000× g for 20 min at 4 °C. The supernatant containing the soluble lysate was removed and saved for subsequent steps.
After incubation, each reaction was transferred to a 1.5 mL tube and centrifuged at 20,000× g for 20 min at 4 °C to remove the insoluble proteins. After centrifugation, 18 μL of supernatant was carefully removed from each reaction, without disturbing any pelleted aggregates, and added to 4.5 μL of 5× SDS-PAGE loading buffer. 11 μL of each reaction was loaded onto a gel in duplicate, and proteins were detected by Western blot (as described below). Resulting band densities were fit to the Boltzmann equation to determine the melting temperature (Tm):(3) y=Bottom+Top−Bottom/1+e^Tm−x/Slope
To rescue the thermal degradation of DHFR by inhibitors, samples containing 10 μM inhibitor, 55 μg lysate, and 1% DMSO in a total volume of 28 μL in DHFR buffer were prepared in PCR tubes and incubated at room temperature for 20 min. Two DMSO-only controls were also prepared. Reactions containing inhibitors were then incubated at 45 °C for 3 min. One DMSO-only control was also heated at 45 °C for 3 min, and the other control was heated at 37 °C for 3 min. The soluble protein fraction was separated from the insoluble proteins by centrifugation, and proteins were separated by SDS-PAGE, as described above, and analyzed via Western blot, as described below. Each experiment was repeated 3 times.
Proteins were electrophoretically separated on a 10% gel, and proteins were transferred to a methanol-activated PVDF membrane using the Trans-Blot Turbo transfer system (Bio-Rad) for 7 min at 1.3 A and 25 V in Trans-Blot Turbo transfer buffer (Bio-Rad). Membranes were blocked with 5% skim milk w/v in TBS-T (20 mM Tris, 150 mM NaCl, 0.05% Tween-20) for 1 h at room temperature. […] The horseradish peroxidase (HRP)-linked anti-mouse IgG secondary antibody (NA931, Cytiva; 1:3000) was added for 1 h at room temperature in 5% skim milk w/v in TBS-T. Signal was detected by adding Immobilon Forte Western HRP Substrate (Millipore), and chemiluminescence was captured on a Sapphire Biomolecular Imager (Azure Biosystems). Band densities were determined using ImageJ (Fiji). The band intensity of DHFR was normalized to the thermostable loading control SOD1 [22].

MDA-MB-468 cells = assay: Resazurin viability assay with or without folinic acid, MDA-MB-468; format: cell-based, Human; conditions: 72 h; for Rescue of viability impairment by folinic acid: MDA-MB-468, 10 μM ± 300 μg/mL FA
Method: (§1) The incorporation and metabolism of resazurin to resorufin was used to monitor cell viability. MDA-MB-468, MCF7, and MDA-MB-231 cells were grown in 96-well plates with a total of 5000 cells per well in a total volume of 180 μL for 24 h, as described above. After 24 h of growth, cells were treated with increasing concentrations of compounds (0.0457–100 μM) for 72 h. A vehicle control was also performed. […] The volume of treatment added to each well was 20 μL. For folinic acid rescue experiments, 5000 cells were treated with 10 μM compound with or without 300 μg/mL folinic acid (Supelco). After 72 h of treatment, resazurin was added to a final concentration of 44 μM, and cells were incubated for an additional 4 h at 37 °C. The fluorescence of resorufin was monitored on a Synergy MX microplate reader (BioTek) using an excitation wavelength of 540 nm and an emission wavelength of 600 nm. Percent viability relative to the DMSO control was determined. Each treatment was performed in triplicate, and each individual experiment was repeated three times (n = 3).

[2] = test system: T2, thymidine phosphorylase (TP) in MDA-MB-468 cell lysates; assay: Lysate CETSA for thymidine phosphorylase; format: binding, Human; conditions: 10 μM, 65 °C, n = 1
T2 construct: MDA-MB-468 lysates were treated with 10 μM each; endogenous in cells; host or cells: MDA-MB-468

[3] = test system: MDA-MB468, MDA-MB-231, and MCF-7 breast cancer cell lines; assay: Dose-response viability in breast cancer cell lines (statements not split by line); format: cell-based, Human; conditions: 0–100 μM, 72 h
Method: as §1

leukemia = test system: leukemia; set-up: method as in PMID 5479856, PMID 5479852, PMID 5241406; conditions: early studies in the 1970s; cited from earlier work
purified human DHFR = target: T3, purified human DHFR (Homo sapiens, UniProt P00374); assay: DHFR enzymatic inhibition assay (NADPH absorbance at 340 nm); format: biochemical; conditions: 137.5 μM DHF, 125 μM NADPH, n = 2
T3 construct: made in house; host or cells: E. coli BL21 (DE3) T1R pRARE2, pNIC-Bsa4 plasmid
T3 sequence (P00374 1-187): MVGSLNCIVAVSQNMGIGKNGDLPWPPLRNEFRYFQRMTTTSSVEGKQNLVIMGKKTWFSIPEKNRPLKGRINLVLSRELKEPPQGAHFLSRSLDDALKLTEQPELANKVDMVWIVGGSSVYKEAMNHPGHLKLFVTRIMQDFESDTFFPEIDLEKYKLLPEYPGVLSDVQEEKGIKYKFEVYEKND
Method: Working stocks of each inhibitor were created so that the final concentration of DMSO in each reaction was 2% in a final reaction volume of 100 μL. […] Reactions were prepared on ice in 384-well plates. […] Consumption of NADPH by measuring absorbance at 340 nm was used to monitor the progress of the reaction. Readings were taken every 5 min for 1 h at 37 °C using a Synergy MX microplate reader (BioTek).
Percent inhibition relative to the no-inhibitor control was determined using Equation (1). (1) % Inhibition=A340Inhibitor−A340DMSO Control/A340No DHFR−A340DMSO Control×100
Percent inhibition data were then fit to the four-parameter logistic model (Equation (2)) in GraphPad Prism 9.4.1 to determine half-maximal inhibitory concentrations (IC50):(2) y=Bottom+Top−Bottom/1+IC50/x^Hill slope where y represents the percent inhibition, x represents the concentration of inhibitor (μM), the bottom and top represent the bottom and top plateaus, and the Hill slope represents the slope factor. Each experiment contained duplicates of each sample, and each experiment was performed 2 times (n = 2). An ordinary one-way ANOVA was used to test for statistical significance between treatments.

| SMILES | Normalized Band Density (%) of soluble DHFR [1] | Normalized Band Density (%) of soluble DHFR ([1]; listed as Cycloguanil) [%] | Normalized Band Density (%) of soluble DHFR ([1]; listed as Pyrimethamine) [%] | Rescue of viability impairment by folinic acid (MDA-MB-468 cells) | TP stabilization by CETSA [2] | Phenotypic response in viability dose-response [3] | Anti-leukemic activity in vivo (leukemia) | IC50 (purified human DHFR; 200 nM DHFR, read-out: IC50) [nM] | IC50 (purified human DHFR; IC50, 200 nM DHFR) [nM] | Relative Viability (%) – Inhibitor + FA Treatment (MDA-MB-468 cells; MDA-MB-468, 10 μM + 300 μg/mL folinic acid) [%] | Relative Viability (%) – Inhibitor Alone (MDA-MB-468 cells; MDA-MB-468, 10 μM, relative to DMSO) [%] |
| --- | --- | --- | --- | --- | --- | --- | --- | --- | --- | --- | --- |
| CC1(C)N=C(N)N=C(N)N1c1ccc(Cl)cc1 [Cyc, Cycloguanil] | greater than 100% | 125.67 ± 39.6 |  |  |  |  |  |  |  |  |  |
| CCc1nc(N)nc(N)c1-c1ccc(Cl)cc1 [Pyr, Pyrimethamine] | greater than 100% |  | 104.12 ± 33.5 | statistically significant rescue | no stabilization of TP was detected |  |  |  |  |  |  |
| CC1(C)N=C(N)N=C(N)N1c1ccc(CCCCc2ccc(S(=O)(=O)F)cc2)c(Cl)c1 [compound 127159] | 99.96 ± 26.2% |  |  | rescued in all but MDA-MB-468 cells |  | little effect at low concentrations and cytotoxicity at higher concentrations | promising anti-leukemic activity in vivo | 750 ± 320 | < 1000 | 77.23 ± 7.2 | 70.45 ± 7.8 |
